Patent US9974761B2, “Medications for deposition on biological surfaces” (The Procter & Gamble Company, priority 2014, dated 2018)

Target: T1, human TRPM8 (UniProt Q8R4D5)
T1 construct: Receptor Activity TRPM8; Receptor Activity TRPM8; other: test compound at 0.001%; relative to WS5 control (30 microMolar); HEK 293 cells; other: test compound at 0.004%; other: test compound at 5.2E−5%; relative to WS5 control
Test: TRPM8 Protocol-FLIPR Assay (intracellular Ca2+)
Type: cell-based
Conditions: for TRPM8 Time Course Activity 50 sec: fluorescence at 50 sec; for TRPM8 Time Course Activity 50 sec % of WS5: vs 30 uM WS-5

CC(C)[C@@H]1CC[C@@H](C)C[C@H]1C(=O)NCC(NC(=O)[C@@H](C)N)c1ccccc1 (single isomer, unassigned) [Compound 28 fraction 1]
TRPM8 Time Course Activity 50 sec (dose 6.1 nM): 884.0
TRPM8 Time Course Activity 50 sec (dose 12.2 nM): 3018.0
TRPM8 Time Course Activity 50 sec (dose 24.4 nM): 1936.0
TRPM8 Time Course Activity 50 sec (dose 48.8 nM): 2916.0
TRPM8 Time Course Activity 50 sec (dose 97.6 nM): 3963.0
TRPM8 Time Course Activity 50 sec (dose 195 nM): 5418.0
TRPM8 Time Course Activity 50 sec % of WS5 (dose 390 nM): 75.5%
TRPM8 Time Course Activity 50 sec (dose 390 nM): 7592.0
TRPM8 Time Course Activity 50 sec % of WS5 (dose 781 nM): 97.3%
TRPM8 Time Course Activity 50 sec (dose 781 nM): 9786.0
TRPM8 Time Course Activity 50 sec % of WS5 (dose 1.563 uM): 110.5%
TRPM8 Time Course Activity 50 sec (dose 1.563 uM): 11114.0
TRPM8 Time Course Activity 50 sec % of WS5 (dose 3.125 uM): 115.7%
TRPM8 Time Course Activity 50 sec (dose 3.125 uM): 11637.0
TRPM8 Time Course Activity 50 sec % of WS5 (dose 6.25 uM): 121.6%
TRPM8 Time Course Activity 50 sec (dose 6.25 uM): 12229.0
TRPM8 Time Course Activity 50 sec % of WS5 (dose 12.5 uM): 123.6%
TRPM8 Time Course Activity 50 sec (dose 12.5 uM): 12430.0
TRPM8 Time Course Activity 50 sec % of WS5 (dose 25 uM): 129.7%
TRPM8 Time Course Activity 50 sec (dose 25 uM): 13046.0
TRPM8 Time Course Activity 50 sec % of WS5 (dose 50 uM): 123.5%
TRPM8 Time Course Activity 50 sec (dose 50 uM): 12419.0
TRPM8 Time Course Activity 50 sec % of WS5 (dose 100 uM): 125.7%
TRPM8 Time Course Activity 50 sec (dose 100 uM): 12646.0
